According to patent US9803002B2, “Anti-wall teichoic antibodies and conjugates” (Genentech, Inc., priority 2013, dated 2017):
In brackets after ≈: the same amount, converted by molar mass. Where two headings read alike, the source gives them in different places. The star is where a group is joined. Propanoyl(3-maleimido) = O=C1C=CC(=O)N1CCC(=O)*

Legend:
staphopain B = molecular target: T1, staphopain B (Staphylococcus aureus, UniProt P0C1S6); format: biochemical; settings: for Percent cleavage pH 7.2, Staphopain B: PBS pH 7.2, 2 hours at 37° C.; for Percent cleavage pH 7.2, Staphopain B / Cleavage product, Staphopain B: LC-MS
T1 construct: purchased Sigma-Aldrich S3951
T1 sequence (P0C1S6 220-393): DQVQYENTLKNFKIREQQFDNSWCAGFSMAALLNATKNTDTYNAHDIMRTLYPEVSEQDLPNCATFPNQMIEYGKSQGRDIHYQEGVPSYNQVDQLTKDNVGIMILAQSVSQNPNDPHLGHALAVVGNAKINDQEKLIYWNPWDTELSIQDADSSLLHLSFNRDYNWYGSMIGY
Description: Cleavage assays with purified proteases were performed by incubating 5 uM of the thioFAB conjugate with 50 nM protease in a final volume of 100 ul. Assays were either performed in PBS pH 7.2, 4 mM L-Cys, 2.5 mM EDTA or 100 mM Sodium Citrate pH 5, 100 mM NaCl, 4 mM L-Cys, 2.5 mM EDTA. Samples were incubated for 2 hours at 37° C. At 2 hours, cleavage reactions were quenched by diluting 1:1 with 1% TFA. Samples were subsequently run on LC-MS to determine percent linker cleavage. Percent cleavage was determined by integrating the A280 chromatograms of the cleaved and intact species. The antibiotic or chromophore moieties added on the C-terminus of the linkers add significant hydrophobicity, such that thioFAB with intact linkers and thioFAB with cleaved linkers are baseline resolved.
At 2 hours, cleavage reactions were quenched by diluting 1:1 with 1% TFA. Samples were subsequently run on LC-MS to determine percent linker cleavage.

staphopain A = molecular target: T2, staphopain A (Staphylococcus aureus, UniProt P81297); format: biochemical; settings: for Percent cleavage pH 7.2, Staphopain A: PBS pH 7.2, 2 hours at 37° C.; for Percent cleavage pH 7.2, Staphopain A / Cleavage product, Staphopain A: LC-MS
T2 sequence (P81297 215-388): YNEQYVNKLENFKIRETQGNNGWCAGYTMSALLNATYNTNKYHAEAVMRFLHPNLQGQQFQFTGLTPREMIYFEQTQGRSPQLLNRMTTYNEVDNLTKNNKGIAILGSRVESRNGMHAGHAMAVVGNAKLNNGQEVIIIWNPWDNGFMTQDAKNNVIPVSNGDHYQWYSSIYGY
Description: Fractions from each chromatography step were analyzed for activity, and 100 ul was used regardless of protein concentration. Samples were incubated overnight at 37° C. and subsequently analyzed by LC-MS to identify fractions where protease cleavage of the linker-antibiotic had occurred. Pooled active fractions from the Q Sepharose FF chromatography were measured to have a total protein concentration of 14 mg/ml. 200 μg of the pool was diluted to 2 mg/ml in PBS and was incubated with and without N-ethylmaleimide (NEM, Sigma) at a concentration of 0.1 mM final. Samples were incubated at room temperature for 1 hour. […] At 2 hours, samples were analyzed by LC-MS to identify whether protease cleavage of the linker-antibiotic had occurred. About 50 ul of the active fractions from SEC were incubated with 0.1 mM Alexa Fluor 488 C5 maleimide (Invitrogen) for 1 hour regardless of protein concentration for labeling. Cleavage assays with purified proteases were performed by incubating 5 uM of the thioFAB conjugate with 50 nM protease in a final volume of 100 ul. Assays were either performed in PBS pH 7.2, 4 mM L-Cys, 2.5 mM EDTA or 100 mM Sodium Citrate pH 5, 100 mM NaCl, 4 mM L-Cys, 2.5 mM EDTA. Samples were incubated for 2 hours at 37° C. At 2 hours, cleavage reactions were quenched by diluting 1:1 with 1% TFA. Samples were subsequently run on LC-MS to determine percent linker cleavage. Percent cleavage was determined by integrating the A280 chromatograms of the cleaved and intact species.
(§2) 5 μM of thioFAB 4497 MP-LAFGA-QSY7(“core peptide” disclosed as SEQ ID NO: 135) and thioFAB 4497 MP-LAFAA-QSY7 (“core peptide” disclosed as SEQ ID NO: 136) (FIG. 30) were incubated with 50 nM of protease in PBS pH 7.2, 4 mM L-Cys, 2.5 mM EDTA for 2 hours at 37° C. At 2 hours, cleavage reactions were quenched by diluting 1:1 with 1% TFA. Samples were subsequently run on LC-MS to determine percent linker cleavage.
5 μM of AAC-193 was incubated with 50 nM of protease in either PBS pH 7.2, 4 mM L-Cys, 2.5 mM EDTA or 100 mM Sodium Citrate pH 5, 100 mM NaCl, 4 mM L-Cys, 2.5 mM EDTA for 2 hours at 37° C. At 2 hours, cleavage reactions were quenched by diluting 1:1 with 1% TFA. Samples were subsequently run on LC-MS to determine percent linker cleavage.

human cathepsin B = human cathepsin B (Homo sapiens, UniProt P07858); experiment: Linker cleavage assay with purified protease; format: biochemical; settings: for Percent cleavage pH 7.2, Cathepsin B: PBS pH 7.2, 2 hours at 37° C.; for Percent cleavage pH 7.2, Cathepsin B / Cleavage product, Cathepsin B: LC-MS
Description: The experimental mal-peptide-QSY7 linkers were conjugated to THIOFAB S4497 to evaluate the cleavability of these linkers.
Fractions from each chromatography step were analyzed for activity, and 100 ul was used regardless of protein concentration. Samples were incubated overnight at 37° C. and subsequently analyzed by LC-MS to identify fractions where protease cleavage of the linker-antibiotic had occurred. Pooled active fractions from the Q Sepharose FF chromatography were measured to have a total protein concentration of 14 mg/ml. 200 μg of the pool was diluted to 2 mg/ml in PBS and was incubated with and without N-ethylmaleimide (NEM, Sigma) at a concentration of 0.1 mM final. Samples were incubated at room temperature for 1 hour. […] At 2 hours, samples were analyzed by LC-MS to identify whether protease cleavage of the linker-antibiotic had occurred. About 50 ul of the active fractions from SEC were incubated with 0.1 mM Alexa Fluor 488 C5 maleimide (Invitrogen) for 1 hour regardless of protein concentration for labeling. Cleavage assays with purified proteases were performed by incubating 5 uM of the thioFAB conjugate with 50 nM protease in a final volume of 100 ul. Assays were either performed in PBS pH 7.2, 4 mM L-Cys, 2.5 mM EDTA or 100 mM Sodium Citrate pH 5, 100 mM NaCl, 4 mM L-Cys, 2.5 mM EDTA. Samples were incubated for 2 hours at 37° C. At 2 hours, cleavage reactions were quenched by diluting 1:1 with 1% TFA. Samples were subsequently run on LC-MS to determine percent linker cleavage. Percent cleavage was determined by integrating the A280 chromatograms of the cleaved and intact species. The antibiotic or chromophore moieties added on the C-terminus of the linkers add significant hydrophobicity, such that thioFAB with intact linkers and thioFAB with cleaved linkers are baseline resolved.
as §2

MRSA [1] = experiment: Intravenous infection model in CB17.SCID mice; format: in vivo, mouse; settings: 50 mg/Kg AAC or 0.5 mg/Kg antibiotic, kidneys 4 days after infection
Description: Mice were sacrificed 4 days after infection and the total number of surviving bacteria per mouse (2 kidneys pooled) was determined by plating.
(§1) 7 week old female mice were used for all in vivo experiments and infections were carried out by intravenous injection into the tail vein. A/J mice (Jackson Lab) were infected with a dose of 2×10^6 CFU. […] For studies examining the role of competing human IgG (SCID IVIG model), CB17.SCID mice (Charles River Laboratories, Hollister, Calif.) were reconstituted with GammaGard S/D IGIV Immune Globulin (ASD Healthcare, Brooks Ky.) using a dosing regimen optimized to achieve constant serum levels of >10 mg/mL of human IgG. IGIV was administered with an initial intravenous dose of 30 mg per mouse followed by a second dose of 15 mg/mouse by intraperitoneal injection after 6 hours, and subsequent daily dosings of 15 mg per mouse by intraperitoneal injection for 3 consecutive days. Mice were infected 4 hours after the first dose of IGIV with 2×10^7 CFU of MRSA diluted in phosphate buffered saline by intravenous injection. Mice that received vancomycin were treated with twice daily intraperitoneal injections of 100 mg/Kg of vancomycin starting between 6 and 24 hours post infection for the duration of the study. […]

[2] = test system: MRSA (NRS384 strain of USA300); experiment: MIC determinations for intracellular bacteria inside mouse peritoneal macrophages; format: cell-based, Staphylococcus aureus; settings: for MIC: Staphylococcus aureus, read-out: Intracellular MRSA MIC
[3] = clinically achievable serum levels; cited from earlier work
[4] = test system: MRSA (NRS384 strain of USA300); experiment: MIC determinations for extracellular bacteria; settings: Staphylococcus aureus, read-out: Extracellular MRSA MIC
Description: Dilutions of the antibiotic were made in quadruplicate in 96 well culture dishes. MRSA (NRS384 strain of USA300) was taken from an exponentially growing culture and diluted to 1×10^4 CFU/mL. Bacteria was cultured in the presence of antibiotic for 18-24 hours with shaking at 37° C. and bacterial growth was determined by reading the Optical Density (OD) at 630 nM. The MIC was determined to be the dose of antibiotic that inhibited bacterial growth by >90%.

MRSA [5] = settings: TSB media; vancomycin 2 and 20 μg/mL, rifampin 0.02 and 0.2 μg/mL
MRSA (USA300) = experiment: Intravenous infection model in CB17.SCID mice reconstituted with human IgG; format: in vivo, mouse
Description: To confirm that the AAC would be effective in the presence of competing human antibodies in vivo, the in vivo infection model was modified to generate mice that express normal levels of human IgG in the serum. […] Four days after infection the bacterial load in the kidneys (FIG. 10C) was assessed.
Efficacy of the AAC was compared with that of treatment with vancomycin, the current standard of care treatment for MRSA infections. […] CB17.SCID mice were reconstituted with human IgG using a dosing regimen optimized to yield constant levels of at least 10 mg/mL of human IgG in serum.
as §1, with “days.” for “days. Mice were infected 4 hours after the first dose of IGIV with 2×10^7 CFU of MRSA diluted in phosphate buffered saline by intravenous injection. Mice that received vancomycin were treated with twice daily intraperitoneal injections of 100 mg/Kg of vancomycin starting between 6 and 24 hours post infection for the duration of the study.”

USA300 = experiment: Pre-treatment in intravenous infection model in Balb/c mice; format: in vivo, mouse; settings: antibodies 50 mg/Kg IV 30 minutes prior to infection; vancomycin 110 mg/Kg twice daily IP; day 4
Description: Balb/c mice were given a single dose of vehicle control (PBS) or 50 mg/Kg of antibodies by intravenous injection 30 minutes prior to infection with 2×10^7 CFU of USA300. […] Control mice were given twice daily treatments with 110 mg/Kg of vancomycin by intraperitoneal injection (Vanco). All mice were sacrificed on day 4 post-infection, and the total number of surviving bacteria in kidneys (2 kidneys pooled) was determined by plating.
as §1, with “injection.” for “injection. Mice that received vancomycin were treated with twice daily intraperitoneal injections of 100 mg/Kg of vancomycin starting between 6 and 24 hours post infection for the duration of the study.”

MRSA [6] = experiment: Transfer of infection from peritoneal cells to MG63 osteoblasts in the presence of vancomycin; format: cell-based, Staphylococcus aureus; settings: 5 μg/mL of vancomycin
Description: 6-8 week old female A/J mice (JAX™ Mice, Jackson Laboratories) were infected with 1×10^8 CFU of the NRS384 strain of USA300 by peritoneal injection. […] Peritoneal cells were then washed 2× in ice cold HB buffer. […] Free MRSA from the primary infection was stored overnight at 4° C. in Phosphate Buffered Saline Solution as a control for extracellular bacteria that were not subject to neutrophil killing.
Osteoblasts were plated in 24 well tissue culture plates and cultured to obtain a confluent layer. On the day of the experiment, the osteoblasts were washed once in RPMI (without supplements). MRSA or infected peritoneal cells were diluted in complete RPMI-10 and vancomycin was added at 5 μg/mL immediately prior to infection. Peritoneal cells were added to the osteoblasts at 1×10^6 peritoneal cells/mL. A sample of the cells was lysed with 0.1% triton-x to determine the actual concentration of live intracellular bacteria at the time of infection.
To generate a pool of intracellular S. aureus, A/J mice were infected with MRSA and infected peritoneal cells were taken 1 day post infection. […] The total number of surviving intracellular bacteria in each well was determined by plating cell lysates on agar plates. […]

[7] = 5 μM conjugate, 50 nM protease, Sodium Citrate pH 5, 2 hours at 37° C.
[8] = listed as MP-LAFG-piperazino-rifamycin
[9] = MRSA inside mouse peritoneal macrophages, antibiotics added 1 day after infection, survival assessed 24 hours later

| Compound | Percent cleavage pH 7.2, Staphopain B (staphopain B; 5 μM conjugate, 50 nM protease) [%] | Cleavage product, Staphopain B (staphopain B) | Percent cleavage pH 7.2, Staphopain A (staphopain A; 5 μM conjugate, 50 nM protease) [%] | Cleavage product, Staphopain A (staphopain A) | Percent cleavage pH 7.2, Cathepsin B (human cathepsin B; 5 μM conjugate, 50 nM protease) [%] | Cleavage product, Cathepsin B (human cathepsin B) | Serum Cmax [3] [µg/mL] | MIC [4] [µg/mL] | MIC [2, 9] [µg/mL] | other results |
| --- | --- | --- | --- | --- | --- | --- | --- | --- | --- | --- |
| CO[C@H]1/C=C/O[C@@]2(C)Oc3c(C)c(O)c4c(=O)c(c5oc6cc(N7CCN(C(=O)OCc8ccc(NC(=O)CNC(=O)[C@H](Cc9ccccc9)NC(=O)[C@H](C)NC(=O)[C@H](CC(C)C)NC(=O)CCN9C(=O)C=CC9=O)cc8)CC7)cc(O)c6nc-5c4c3C2=O)NC(=O)/C(C)=C\C=C\[C@H](C)[C@H](O)[C@@H](C)[C@@H](O)[C@@H](C)[C@H](OC(C)=O)[C@@H]1C [LA-104, MP-LAFG-PABC-(piperazinoBOR)] | 100 | piperazino- | 46 | piperazino- | 64 | Phe-Gly-piperazino-rifamycin |  |  |  | Percent cleavage pH 5, Staphopain B (staphopain B; [7]): 100%; Cleavage product, Staphopain B (staphopain B; [8]): free rifamycin; Percent cleavage pH 5, Staphopain A (staphopain A; [7]): 100%; Cleavage product, Staphopain A (staphopain A; [8]): free rifamycin; Percent cleavage pH 5, Cathepsin B (human cathepsin B; [7]): 100% |
| dimethylpiperidyl benzoxazino rifamycin [dimethyl-pipBOR] |  |  |  |  |  |  |  |  |  | efficacy when given 1 day post infection (MRSA [1]): failed to clear the infection; killing intracellular MRSA when tested as free antibiotics [2]: more potent than rifampicin |
| MP-LAFGA-QSY7: maleimido-propionic-Leu-Ala-Phe-Gly-Ala linker with QSY7 as antibiotic surrogate, tested conjugated to thioFAB S4497 ({Propanoyl(3-maleimido)}-LAFGA-QSY7; also: conjugated to thioFAB S4497) | 100 | A-QSY7 | 38 | A-QSY7 | 100 | A-QSY7 |  |  |  |  |
| CC(=O)NC[C@H]1CN(c2ccc(N3CCOCC3)c(F)c2)C(=O)O1 [Linezolid] |  |  |  |  |  |  | 10 | 0.3 (≈ 0.889 µM) |  | MIC ([2]; 24 h): > 20 µg/mL |
| CCCCCCCCCC(=O)N[C@@H](Cc1c[nH]c2ccccc12)C(=O)N[C@H](CC(N)=O)C(=O)N[C@@H](CC(=O)O)C(=O)N[C@@H]1C(=O)NCC(=O)N[C@@H](CCCN)C(=O)N[C@@H](CC(=O)O)C(=O)N[C@H](C)C(=O)N[C@@H](CC(=O)O)C(=O)NCC(=O)N[C@H](CO)C(=O)N[C@@H]([C@H](C)CC(=O)O)C(=O)N[C@@H](CC(=O)c2ccccc2N)C(=O)O[C@@H]1C [Daptomycin] |  |  |  |  |  |  | 80 | 4 (≈ 2.47 µM) | > 100 |  |
| CN[C@H](CC(C)C)C(=O)N[C@H]1C(=O)N[C@@H](CC(N)=O)C(=O)N[C@H]2C(=O)N[C@H]3C(=O)N[C@H](C(=O)N[C@H](C(=O)O)c4cc(O)cc(O)c4-c4cc3ccc4O)[C@H](O)c3ccc(c(Cl)c3)Oc3cc2cc(c3O[C@@H]2O[C@H](CO)[C@@H](O)[C@H](O)[C@H]2O[C@H]2C[C@](C)(N)[C@H](O)[C@H](C)O2)Oc2ccc(cc2Cl)[C@H]1O [Vancomycin] |  |  |  |  |  |  | 10 to 40 | 1 (≈ 0.69 µM) | > 100 | bacteria remained viable during the first two hours of antibiotic treatment (MRSA [5]): 90%; loss in viable bacteria by 5 hours (MRSA [5]): 100 fold; efficacy in kidneys (FIG. 11A) (MRSA (USA300); AAC single dose 50 mg/Kg day 1, vancomycin 100 mg/Kg twice daily, day 4): failed to clear the infection; reduction of bacterial loads (MRSA (USA300); twice-daily 100 mg/Kg, treatment initiated more than 1 day post infection): about 50 fold; effect of pre-treatment on bacterial loads in kidneys (USA300): cleared the infection in all of the mice tested; intracellular bacteria in MG63 wells 1 day post infection (MRSA [6]; similar dose of free (extracellular) MRSA): 375 intracellular bacteria; intracellular bacteria in MG63 wells 1 day after infection (MRSA [6]; wells infected with 3×10^4 intracellular bacteria (peritoneal cells)): 8,750 intracellular bacteria |
| CO[C@H]1/C=C/O[C@@]2(C)Oc3c(C)c(O)c4c(O)c(c(/C=N/N5CCN(C)CC5)c(O)c4c3C2=O)NC(=O)/C(C)=C\C=C\[C@H](C)[C@H](O)[C@@H](C)[C@@H](O)[C@@H](C)[C@H](OC(C)=O)[C@@H]1C [Rifampicin] |  |  |  |  |  |  | 20 | 0.004 (≈ 0.00486 µM) | > 20 | bacteria remained viable during the first two hours of antibiotic treatment (MRSA [5]): 90%; loss in viable bacteria by 5 hours (MRSA [5]): 100 fold |
| piperidyl benzoxazino rifamycin [pipBOR] |  |  |  |  |  |  |  |  |  | killing intracellular MRSA when tested as free antibiotics [2]: more potent than rifampicin |
| MP-LAFAA-QSY7: maleimido-propionic-Leu-Ala-Phe-Ala-Ala linker with QSY7 as antibiotic surrogate, tested conjugated to thioFAB S4497 ({Propanoyl(3-maleimido)}-LAFAA-QSY7; also: conjugated to thioFAB S4497) | 100 | A-QSY7 | 23 | A-QSY7 | 100 | A-QSY7, and QSY7 |  |  |  |  |
